{"source": "patent US20110021505A1", "about": "“Use of sulfonyl-substituted 2-sulfonylaminobenzoic acid N-phenylamides in the treatment of pain” (SANOFI-AVENTIS DEUTSCHLAND GMBH, priority 2007, published 2011)", "tested_on": "thermal hyperalgesia of the hind paws induced by injection of carrageenan", "assay": "Anti-hyperalgesic effect in the carrageenan model of inflammatory triggered thermal hyperalgesia in mice after oral administration", "format": "in vivo, male C57B6 mice", "parameters": "key to Statistical evaluation vs. control (AUC1 h-6 h of PWL): ns: not significant; ***: significant, p < 0.0001 (ANOVA & Dunnett)", "settings": "for Mean PWL (paw withdrawal latency) ± SEM: N=6 paws; for Statistical evaluation vs. control (AUC1 h-6 h of PWL): 1-way ANOVA & Dunnett; for AUC1 h-6 h of PWL (mean ± SEM): 1 h to 6 h after carrageenan, N=6", "method": "In this in vivo model the anti-hyperalgesic effect was determined in mice in which a thermal hyperalgesia of the hind paws had been induced by injection of carrageenan, by measuring the paw withdrawal latency (PWL), i.e. the time until the mouse withdrew its hind paw from a heated spot of the ground. These experiments and all other animal experiments were performed in accordance with animal protection law and guidelines for the use of experimental animals.\nThree test groups and one control group of animals were used each consisting of three male C57B6 mice. 1 h before injection of carrageenan, either the test compound or vehicle was administered to the animals orally by gavage. In the test groups, mice received 100 μl/10 g body weight of a suspension of the test compound in vehicle MC/T80 comprising 0.1 mg/ml, 0.3 mg/ml or 1 mg/ml (prepared as described in pharmaceutical example A) for attaining a dosage of 1 mg/kg body weight, 3 mg/kg body weight and 10 mg/kg body weight, respectively. In the control group, mice analogously received 100 μl/10 g body weight of vehicle MC/T80. For induction of hind paw inflammatory pain, then in all groups carrageenan (Sigma, Deisenhofen, Germany) at a concentration of 2% in 10 μl of saline was injected into the plantar aspect of both hind paws of the mice under slight general isofluran anesthesia. 1 h before injection of carrageenan, i.e. immediately before administration of the test compound or vehicle, and 1 h, 2 h, 4 h and 6 h after injection of carrageenan, thermal hyperalgesia was determined.\nThermal hyperalgesia was determined by measuring the paw withdrawal latency (PWL) by means of the automatic plantar test, first described for rats in K. Hargreaves et al., Pain 32 (1988), 77-88, and used in an adapted version fitted to mice described in H. Gühring et al., J. Neurosci. 20 (2000), 6714-6720. To restrict animal movement, 10.5×13.0×4.5 cm test cages were used. Instead of a glass floor, a metal grid bottom was used. PWL (in seconds) was determined on exposure of the paw to a defined thermal stimulus using a commercially available apparatus (Plantar Test, Ugo Basile Biological Research Apparatus, Comerio, Italy) fitted with a mini camera to ensure proper placement of the infrared heat below the hind paw of interest. The timer which measured the duration of reflected infrared light by the hind paw was started by the investigator and stopped once the animal shook the affected paw. A cut-off was set at 16 seconds to prevent tissue damage. For each hind paw and each time point, the mean of three to four PWL measurements was determined.\nThe given PWL values (in seconds) are the mean±SEM (standard error of the mean) of the PWL values obtained for each hind paw of each animal (N (number of paws)=6) of the indicated dosage group at the time points 1 h, 2 h, 4 h and 6 h after injection of carrageenan, as well as the baseline PWL values (BL) determined 1 h before administration of the test compound or vehicle and injection of carrageenan.\nFor the statistical analysis, PWL values were used in two ways, first with a 2-way ANOVA test based on the PWL values and second with a 1-way ANOVA test based on the area under the curve (AUC) values for the time period of 6 h after injection of carrageenan. A repeated measures 2-way ANOVA test (factor treatment and repeated measures factor time) was performed on PWL measurements. In case the interaction (treatment×time) was statistically significant, a Winer complementary analysis was done to investigate the effect of treatment for each time point. A Dunnett's test was used to study the potential differences between the control group and the test groups. […]"}
{"smiles": "O=C(Nc1ccc(S(=O)(=O)N2CCOCC2)cc1)c1cc(Cl)ccc1NS(=O)(=O)c1ccc(Cl)s1.[Na]", "note": "[Example 94, 5-Chloro-2-(5-chloro-thiophene-2-sulfonylamino)-N-(4-(morpholine-4-sulfonyl)-phenyl)-benzamide sodium salt]", "values": [{"measurement": "Mean PWL (paw withdrawal latency) ± SEM", "setting": "1 mg/kg body weight group, BL baseline before administration and carrageenan", "result": "11.08 ± 0.40", "unit": "s"}, {"measurement": "Statistical evaluation vs. control (AUC1 h-6 h of PWL)", "setting": "1 mg/kg body weight oral", "result": "ns"}, {"measurement": "Mean PWL (paw withdrawal latency) ± SEM", "setting": "1 mg/kg body weight oral, 1 h after carrageenan", "result": "4.08 ± 0.62", "unit": "s"}, {"measurement": "AUC1 h-6 h of PWL (mean ± SEM)", "setting": "1 mg/kg body weight oral", "result": "19.57 ± 2.19"}, {"measurement": "Mean PWL (paw withdrawal latency) ± SEM", "setting": "1 mg/kg body weight oral, 2 h after carrageenan", "result": "3.80 ± 0.28", "unit": "s"}, {"measurement": "Mean PWL (paw withdrawal latency) ± SEM", "setting": "1 mg/kg body weight oral, 4 h after carrageenan", "result": "3.98 ± 0.79", "unit": "s"}, {"measurement": "Mean PWL (paw withdrawal latency) ± SEM", "setting": "1 mg/kg body weight oral, 6 h after carrageenan", "result": "3.86 ± 0.48", "unit": "s"}, {"measurement": "Anti-hyperalgesic effect on PWL vs. control (2-way ANOVA, Dunnett)", "setting": "3 mg/kg and 10 mg/kg body weight oral, from 1 h to 4 h after carrageenan injection", "result": "Statistically significant anti-hyperalgesic effects"}, {"measurement": "Mean PWL (paw withdrawal latency) ± SEM", "setting": "3 mg/kg body weight group, BL baseline before administration and carrageenan", "result": "10.69 ± 0.27", "unit": "s"}, {"measurement": "Statistical evaluation vs. control (AUC1 h-6 h of PWL)", "setting": "3 mg/kg body weight oral", "result": "*** (significant, p < 0.0001 (ANOVA & Dunnett))"}, {"measurement": "Mean PWL (paw withdrawal latency) ± SEM", "setting": "3 mg/kg body weight oral, 1 h after carrageenan", "result": "8.42 ± 0.53", "unit": "s"}, {"measurement": "AUC1 h-6 h of PWL (mean ± SEM)", "setting": "3 mg/kg body weight oral", "result": "44.87 ± 1.21"}, {"measurement": "Mean PWL (paw withdrawal latency) ± SEM", "setting": "3 mg/kg body weight oral, 2 h after carrageenan", "result": "10.16 ± 0.33", "unit": "s"}, {"measurement": "Mean PWL (paw withdrawal latency) ± SEM", "setting": "3 mg/kg body weight oral, 4 h after carrageenan", "result": "10.84 ± 0.63", "unit": "s"}, {"measurement": "Mean PWL (paw withdrawal latency) ± SEM", "setting": "3 mg/kg body weight oral, 6 h after carrageenan", "result": "3.74 ± 0.47", "unit": "s"}, {"measurement": "Mean PWL (paw withdrawal latency) ± SEM", "setting": "10 mg/kg body weight group, BL baseline before administration and carrageenan", "result": "10.97 ± 0.40", "unit": "s"}, {"measurement": "Statistical evaluation vs. control (AUC1 h-6 h of PWL)", "setting": "10 mg/kg body weight oral", "result": "*** (significant, p < 0.0001 (ANOVA & Dunnett))"}, {"measurement": "Mean PWL (paw withdrawal latency) ± SEM", "setting": "10 mg/kg body weight oral, 1 h after carrageenan", "result": "12.46 ± 0.91", "unit": "s"}, {"measurement": "AUC1 h-6 h of PWL (mean ± SEM)", "setting": "10 mg/kg body weight oral", "result": "48.70 ± 2.06"}, {"measurement": "Mean PWL (paw withdrawal latency) ± SEM", "setting": "10 mg/kg body weight oral, 2 h after carrageenan", "result": "11.24 ± 0.77", "unit": "s"}, {"measurement": "Mean PWL (paw withdrawal latency) ± SEM", "setting": "10 mg/kg body weight oral, 4 h after carrageenan", "result": "11.11 ± 0.54", "unit": "s"}, {"measurement": "Mean PWL (paw withdrawal latency) ± SEM", "setting": "10 mg/kg body weight oral, 6 h after carrageenan", "result": "3.40 ± 0.46", "unit": "s"}]}
